Reference: patent publication US9346815B2, “5-chloro-2-difluoromethoxyphenyl pyrazolopyrimidine compounds, compositions and methods of use thereof” (Genentech, Inc., priority 2014, dated 2016)
Like-named read-outs stand apart in the source and are kept apart here.

Tests used:
[1] = target: isolated recombinant JAK1 kinase domain (Homo sapiens (Human), UniProt P23458); assay: JAK1 enzyme assay (Caliper LabChip, peptide phosphorylation); assay type: biochemical; conditions: isolated recombinant JAK1 kinase domain, 25 μM ATP
isolated recombinant JAK1 kinase domain, sequence (P23458 875-1153): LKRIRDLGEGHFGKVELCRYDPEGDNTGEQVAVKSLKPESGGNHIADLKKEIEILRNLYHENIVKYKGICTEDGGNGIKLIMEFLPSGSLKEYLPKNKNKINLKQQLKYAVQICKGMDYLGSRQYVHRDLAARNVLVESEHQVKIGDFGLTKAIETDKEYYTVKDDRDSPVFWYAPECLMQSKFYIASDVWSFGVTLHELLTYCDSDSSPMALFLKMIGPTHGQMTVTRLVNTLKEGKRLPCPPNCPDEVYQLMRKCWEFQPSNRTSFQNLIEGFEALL

[2] = target: isolated recombinant JAK2 kinase domain (Homo sapiens (Human), UniProt O60674); assay: JAK2 enzyme assay (Caliper LabChip, peptide phosphorylation); assay type: biochemical; conditions: 25 μM ATP
isolated recombinant JAK2 kinase domain, sequence (O60674 849-1124): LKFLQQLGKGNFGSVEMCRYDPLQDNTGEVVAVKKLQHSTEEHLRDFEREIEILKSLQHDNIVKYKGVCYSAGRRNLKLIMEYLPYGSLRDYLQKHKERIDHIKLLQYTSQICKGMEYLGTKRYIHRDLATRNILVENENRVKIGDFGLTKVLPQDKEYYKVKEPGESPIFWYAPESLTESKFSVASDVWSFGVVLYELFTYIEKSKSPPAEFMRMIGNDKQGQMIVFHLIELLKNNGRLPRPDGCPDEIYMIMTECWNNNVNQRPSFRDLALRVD

[3] = system: JAK1-dependent STAT6 phosphorylation downstream of IL-13 stimulation in TF-1 human erythroleukemia cells; assay: JAK1 pathway assay in TF-1 cells (IL-13-pSTAT6, MSD); assay type: cell-based; conditions: read-out: IL13-pSTAT6 EC50_TF-1
Method in brief: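 BEAS-2B: 1 h, complete growth medium, 100,000 cells/well. TF-1: 30 min, serum-free OptiMEM after overnight GM-CSF starvation, 300,000 cells/well. EC50 reported.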

SMILES	Ki [1]	Ki [2]	EC50 ([3]; Homo sapiens, TF-1, TF-1 cells)	EC50 ([3]; TF-1 cells)
CCCCN(C)CC#Cc1nc(-c2cc(Cl)ccc2OC(F)F)c(NC(=O)c2cnn3cccnc23)s1 [Example 210, N-[2-[3-[butyl(methyl)amino]prop-1-ynyl]-4-[5-chloro-2-(difluoromethoxy)phenyl]thiazol-5-yl]pyrazolo[1,5-a]pyrimidine-3-carboxamide]	0.16 nM	0.1 nM	240 nM	
CN(C)CCC1CCN(c2nc(-c3cc(Cl)ccc3OC(F)F)c(NC(=O)c3cnn4cccnc34)s2)CC1 [Example 191, N-[4-[5-chloro-2-(difluoromethoxy)phenyl]-2-[4-[2-(dimethylamino)ethyl]-1-piperidyl]thiazol-5-yl]pyrazolo[1,5-a]pyrimidine-3-carboxamide]	2.93 nM	2.92 nM	10.5 nM	
Nc1nn2cccnc2c1C(=O)Nc1cn(C2CCN(CCCCOCCc3ccccc3)CC2)nc1-c1cc(Cl)ccc1OC(F)F [Example 181, 2-amino-N-[3-[5-chloro-2-(difluoromethoxy)phenyl]-1-[1-[4-(2-phenylethoxy)butyl]-4-piperidyl]pyrazol-4-yl]pyrazolo[1,5-a]pyrimidine-3-carboxamide]	1.99 nM	0.48 nM	95.6 nM	
CN(Cc1ccc2ccccc2c1)C1CCN(C(=O)Cn2cc(NC(=O)c3cnn4cccnc34)c(-c3cc(Cl)ccc3OC(F)F)n2)CC1 [Example 130, N-[3-[5-chloro-2-(difluoromethoxy)phenyl]-1-[2-[4-[methyl(2-naphthylmethyl)amino]-1-piperidyl]-2-oxo-ethyl]pyrazol-4-yl]pyrazolo[1,5-a]pyrimidine-3-carboxamide]	1.1 nM	2.91 nM	32.3 nM	
CCCCN(C)C1CCN(c2nc(-c3cc(Cl)ccc3OC(F)F)c(NC(=O)c3cnn4cccnc34)s2)CC1 [Example 199, N-[2-[4-[butyl(methyl)amino]-1-piperidyl]-4-[5-chloro-2-(difluoromethoxy)phenyl]thiazol-5-yl]pyrazolo[1,5-a]pyrimidine-3-carboxamide]	1.22 nM	1.07 nM	7.3 nM	
CN(CCCN1CCC(n2cc(NC(=O)c3c(N)nn4cccnc34)c(-c3cc(Cl)ccc3OC(F)F)n2)CC1)C(=O)c1ccccc1 [Example 151, 2-amino-N-[1-[1-[3-[benzoyl(methyl)amino]propyl]-4-piperidyl]-3-[5-chloro-2-(difluoromethoxy)phenyl]pyrazol-4-yl]pyrazolo[1,5-a]pyrimidine-3-carboxamide]	2 nM	0.42 nM	93.8 nM	
CN(CCc1ccccc1)C1CCN(c2nc(-c3cc(Cl)ccc3OC(F)F)c(NC(=O)c3cnn4cccnc34)s2)CC1 [Example 192, N-[4-[5-chloro-2-(difluoromethoxy)phenyl]-2-[4-[methyl(2-phenylethyl)amino]-1-piperidyl]thiazol-5-yl]pyrazolo[1,5-a]pyrimidine-3-carboxamide]	5 nM	3.72 nM	272 nM	
CN(CCO)C1CCN(C(=O)Cn2cc(NC(=O)c3c(N)nn4cccnc34)c(-c3cc(Cl)ccc3OC(F)F)n2)CC1 [Example 140, 2-amino-N-[3-[5-chloro-2-(difluoromethoxy)phenyl]-1-[2-[4-[2-hydroxyethyl(methyl)amino]-1-piperidyl]-2-oxo-ethyl]pyrazol-4-yl]pyrazolo[1,5-a]pyrimidine-3-carboxamide]	0.46 nM	0.39 nM	29.3 nM	
CN1CCCN(C(=O)Cn2cc(NC(=O)c3c(N)nn4cccnc34)c(-c3cc(Cl)ccc3OC(F)F)n2)CC1 [Example 246, 2-amino-N-[3-[5-chloro-2-(difluoromethoxy)phenyl]-1-[2-(4-methyl-1,4-diazepan-1-yl)-2-oxo-ethyl]pyrazol-4-yl]pyrazolo[1,5-a]pyrimidine-3-carboxamide]	1.08 nM	0.57 nM	48.8 nM	

Continued, values first:

Ki [1]	Ki [2]	EC50 ([3]; Homo sapiens, TF-1, TF-1 cells)	EC50 ([3]; TF-1 cells)	SMILES
0.77 nM	0.94 nM	6.2 nM		O=C(Nc1cn(CC(=O)N2C[C@H]3CN(CC4CCOCC4)C[C@H]3C2)nc1-c1cc(Cl)ccc1OC(F)F)c1cnn2cccnc12 [Example 26, N-[1-[2-[(3aR,6aS)-2-(tetrahydropyran-4-ylmethyl)-1,3,3a,4,6,6a-hexahydropyrrolo[3,4-c]pyrrol-5-yl]-2-oxo-ethyl]-3-[5-chloro-2-(difluoromethoxy)phenyl]pyrazol-4-yl]pyrazolo[1,5-a]pyrimidine-3-carboxamide]
1.1 nM	0.78 nM	11.8 nM		CN1C[C@@H]2[C@H](C1)[C@H](CO)N(C(=O)Cn1cc(NC(=O)c3cnn4cccnc34)c(-c3cc(Cl)ccc3OC(F)F)n1)[C@@H]2c1ccccc1 [Example 37, N-[1-[2-[(3aS,4S,6R,6aR)-6-(hydroxymethyl)-2-methyl-4-phenyl-1,3,3a,4,6,6a-hexahydropyrrolo[3,4-c]pyrrol-5-yl]-2-oxo-ethyl]-3-[5-chloro-2-(difluoromethoxy)phenyl]pyrazol-4-yl]pyrazolo[1,5-a]pyrimidine-3-carboxamide]
0.73 nM	0.66 nM	22 nM		O=C(Nc1cn(CC(=O)N2C[C@H]3CN(CCc4ccccc4)C[C@H]3C2)nc1-c1cc(Cl)ccc1OC(F)F)c1cnn2cccnc12 [Example 13, N-[1-[2-[(3aS,6aR)-2-(2-phenylethyl)-1,3,3a,4,6,6a-hexahydropyrrolo[3,4-c]pyrrol-5-yl]-2-oxo-ethyl]-3-[5-chloro-2-(difluoromethoxy)phenyl]pyrazol-4-yl]pyrazolo[1,5-a]pyrimidine-3-carboxamide]
0.54 nM	0.22 nM		6.7 nM	CN1C[C@@H]2CN(C(=O)Cn3cc(NC(=O)c4cnn5cccnc45)c(-c4cc(Cl)ccc4OC(F)F)n3)C[C@]2(c2ccccc2)C1 [Example 44, N-[1-[2-[(3aR,6aR)-2-methyl-3a-phenyl-3,4,6,6a-tetrahydro-1H-pyrrolo[3,4-c]pyrrol-5-yl]-2-oxo-ethyl]-3-[5-chloro-2-(difluoromethoxy)phenyl]pyrazol-4-yl]pyrazolo[1,5-a]pyrimidine-3-carboxamide]
0.54 nM	1.59 nM	28.9 nM		CN1CCC2(CC1)CCN(C(=O)Cn1cc(NC(=O)c3cnn4cccnc34)c(-c3cc(Cl)ccc3OC(F)F)n1)C2 [Example 222, N-[3-[5-chloro-2-(difluoromethoxy)phenyl]-1-[2-(8-methyl-2,8-diazaspiro[4.5]decan-2-yl)-2-oxo-ethyl]pyrazol-4-yl]pyrazolo[1,5-a]pyrimidine-3-carboxamide]
0.56 nM	1.47 nM	19.3 nM		CN1CCC2(CCN(C(=O)Cn3cc(NC(=O)c4cnn5cccnc45)c(-c4cc(Cl)ccc4OC(F)F)n3)CC2)C1 [Example 224, N-[3-[5-chloro-2-(difluoromethoxy)phenyl]-1-[2-(2-methyl-2,8-diazaspiro[4.5]decan-8-yl)-2-oxo-ethyl]pyrazol-4-yl]pyrazolo[1,5-a]pyrimidine-3-carboxamide]
0.99 nM	0.74 nM	32 nM		CC(C)(O)CCN1C[C@@H]2CN(C(=O)Cn3cc(NC(=O)c4cnn5cccnc45)c(-c4cc(Cl)ccc4OC(F)F)n3)C[C@@H]2C1 [Example 50, N-[1-[2-[(3aR,6aS)-2-(3-hydroxy-3-methyl-butyl)-1,3,3a,4,6,6a-hexahydropyrrolo[3,4-c]pyrrol-5-yl]-2-oxo-ethyl]-3-[5-chloro-2-(difluoromethoxy)phenyl]pyrazol-4-yl]pyrazolo[1,5-a]pyrimidine-3-carboxamide]
1.55 nM	2.38 nM	8.6 nM		CN1CCCN(C(=O)Cn2cc(NC(=O)c3cnn4cccnc34)c(-c3cc(Cl)ccc3OC(F)F)n2)CC1 [Example 239, N-[3-[5-chloro-2-(difluoromethoxy)phenyl]-1-[2-(4-methyl-1,4-diazepan-1-yl)-2-oxo-ethyl]pyrazol-4-yl]pyrazolo[1,5-a]pyrimidine-3-carboxamide]
1.67 nM	0.25 nM	11.4 nM		NC(=O)CCCN1CCC(n2cc(NC(=O)c3cnn4cccnc34)c(-c3cc(Cl)ccc3OC(F)F)n2)CC1 [Example 170, N-[1-[1-(4-amino-4-oxo-butyl)-4-piperidyl]-3-[5-chloro-2-(difluoromethoxy)phenyl]pyrazol-4-yl]pyrazolo[1,5-a]pyrimidine-3-carboxamide]
1.45 nM	3.17 nM	50 nM		CN(CCOc1ccccc1Br)C1CCN(C(=O)Cn2cc(NC(=O)c3cnn4cccnc34)c(-c3cc(Cl)ccc3OC(F)F)n2)CC1 [Example 105, N-[1-[2-[4-[2-(2-bromophenoxy)ethyl-methyl-amino]-1-piperidyl]-2-oxo-ethyl]-3-[5-chloro-2-(difluoromethoxy)phenyl]pyrazol-4-yl]pyrazolo[1,5-a]pyrimidine-3-carboxamide]
0.88 nM	0.78 nM	8.5 nM		COCCCN1C[C@@H]2CN(C(=O)Cn3cc(NC(=O)c4cnn5cccnc45)c(-c4cc(Cl)ccc4OC(F)F)n3)C[C@@H]2C1 [Example 38, N-[1-[2-[(3aR,6aS)-2-(3-methoxypropyl)-1,3,3a,4,6,6a-hexahydropyrrolo[3,4-c]pyrrol-5-yl]-2-oxo-ethyl]-3-[5-chloro-2-(difluoromethoxy)phenyl]pyrazol-4-yl]pyrazolo[1,5-a]pyrimidine-3-carboxamide]
0.46 nM	0.55 nM	144 nM		CS(=O)(=O)CCCN1C[C@@H]2CN(C(=O)Cn3cc(NC(=O)c4cnn5cccnc45)c(-c4cc(Cl)ccc4OC(F)F)n3)C[C@@H]2C1 [Example 27, N-[1-[2-[(3aS,6aR)-2-(3-methylsulfonylpropyl)-1,3,3a,4,6,6a-hexahydropyrrolo[3,4-c]pyrrol-5-yl]-2-oxo-ethyl]-3-[5-chloro-2-(difluoromethoxy)phenyl]pyrazol-4-yl]pyrazolo[1,5-a]pyrimidine-3-carboxamide]
